From patent publication US20240425457A1, “COMPOSITIONS AND METHODS FOR SUPPRESSING AND/OR TREATING METABOLIC DISEASES AND/OR A CLINICAL CONDITION THEREOF” (CK Biotech Inc., priority 2018, published 2024)
Values after ≈ are worked out from the molar mass of the structure shown. “Also recorded” adds a separate entry of the source.

What was measured:
[1] = test system: HFD+STZ-induced diabetes mice; assay: HFD-fed and STZ-induced diabetes mice; type: in vivo
Excerpt: Animals. The generation of Cxxc5^−/− mice has been described previously. Cxxc5 heterozygous mice were intercrossed for four generations to obtain littermate wild-type and Cxxc5^−/− mice and were maintained on a C57BL/6 background. Six-week-old Cxxc5^+/+ and Cxxc5^−/− mice were fed HFD for 8 weeks. Wild-type male C57BL/6 mice (KOATECH, Seoul, Korea) were fed HFD consisting of 60% calories from fat (Research Diet, D12492) for 8 weeks. To validate that the insulin resistance mouse model was successfully established, fasting glucose levels were assessed with a One Touch Ultra glucometer (LifeScan). Subsequently, each HFD-fed mouse with a fasting glucose level higher than 16.7 mmol/L was orally administered A3334 (25 mg kg^−1), sitagliptin (50 mg kg^−1), or metformin (100 mg kg^−1) each day for 5 days at weeks 8 and 12. After the removal of the drugs, mice were maintained for 3 weeks on the HFD. To monitor pancreas regeneration, six-week-old Cxxc5^+/+ and Cxxc5^−/− mice were fed an HFD as above. After dietary treatment for 4 weeks, the mice were intraperitoneally injected with STZ (50 mg/kg/d) for 1 week and the control group were injected with saline. After 2 weeks, Cxxc5^+/+ mice were administered A3334 (25 mg kg^−1) and sitagliptin (50 mg kg^−1) per day by oral gavage for 4 weeks. For GTT or ITT, mice were injected with D-glucose (1.5 g/kg body weight) after overnight starvation or human insulin (0.75 units/kg body weight) after 4 h starvation, respectively. Tail blood was drawn at 0, 15, 30, 60, 120, 180 min intervals and blood glucose level was measured with a One Touch Ultra glucometer. All mice were maintained under temperature-controlled and light-controlled (standard 12 h light/dark cycle) conditions and provided with food and water ad libitum. All protocols were reviewed and approved by the Institutional Review Board of Severance Hospital, Yonsei University College of Medicine (09-013).
β-Cell and α-cell mass analyses. All of the β-cell, α-cell and the cross-sectional area of all pancreatic tissue were quantified. Total β-cell and α-cell area and total pancreas mass for each animal was calculated as the sum of the determinations from each of the 8-10 segments of pancreas. A total of 10-15 beta cells was counted for each pancreas.
A3334 suppressed diabetes induced by multiple low-dose STZ-induced diabetes. Referring now to FIG. 40A-40G, C57BL/6N mice were induced diabetes by HFD for 8 weeks, and induced diabetes by injection of 50 mpk streptozotosin (STZ) for 1 week. After 2 weeks, A3334 (25 mpk) or SITA (25 mpk) was applied for 4 more weeks, histological analyses of pancreas were done.

[2] = test system: normal (Chow) mice; assay: normal diet (NCD/Chow) fed mice treated with A3334; type: in vivo
Excerpt: No effect of A3334 on mice fed with normal diet. To evaluate whether the A3334 treatment would have any effect on normal diet fed mice, C57BL/6N mice were fed normal diet for 16 weeks with or without oral administration of 25 mpk A3334.

[3] = solubility of A3334 in oil or surfactants (LC/MS/MS); type: physicochemical; details: 37 °C, thermodynamic from solid
Protocol: To determine emulsion solution, solubility of A3334, for example, is measured in the several oil and surfactants. A3334 is mixed with oil or surfactants (1 ml) and vortexed for 30 min. The equilibrium state was reached by shaking for 72 hours at 37° C. with 50 rpm speed in an incubator, then centrifuged at 16,100×g for 5 min. The supernatant was diluted with methanol and analyzed by LC/MS/MS (see e.g., Table 7).
‘Waters xevo TQ MS-ACQUITY UPLC System’ is used as an analyses equipment. ACQUITY UPLC® BEH(C18, 1.7 μm, 2.1×50 mm) column was used for analyses at room temperature. Mobile phase is used after filtration of deionized distilled water including 0.1% formic acid and acetonitrile including 0.1% formic acid (30:70, v/v) with […] membrane filter. The flow rate is 0.25 ml/min and it is analyzed by injection of 0.5 μl sample. There are LC/MS/MS conditions for Decursin analysis; Cone 38 V, Collison 32 V. Precursor ion and daughter ion are monitored 329 and 229 m/z, respectively.

- solubility at 72 h ([3]; oil or lipid, Oil: Olive oil): 830 µg/mL (≈ 2.7 mM)
- solubility at 72 h ([3]; oil or lipid, Oil: Sunflower oil): 1350 µg/mL (≈ 4.39 mM)
- solubility at 72 h ([3]; organic solvent or mixture, Co-Surfactant: Propylene glycol): 250 µg/mL (≈ 0.814 mM)
- solubility at 72 h ([3]; organic solvent or mixture, Co-Surfactant: Transcutor P): 1150 µg/mL (≈ 3.74 mM)
- solubility at 72 h ([3]; KOLLIPHOR EL (listed as oil), aqueous with cosolvent or surfactant or cyclodextrin, Oil: KOLLIPHOR EL): 5400 µg/mL (≈ 17.6 mM)
- solubility at 72 h ([3]; PEG 400 (co-surfactant), organic solvent or mixture, Co-Surfactant: PEG 400): 3100 µg/mL (≈ 10.1 mM)
- solubility at 72 h ([3]; Tween 20 (surfactant), aqueous with cosolvent or surfactant or cyclodextrin, Surfactants: Tween 20): 4580 µg/mL (≈ 14.9 mM)
- solubility at 72 h ([3]; Tween 80 (surfactant), aqueous with cosolvent or surfactant or cyclodextrin, Surfactants: Tween 80): 4920 µg/mL (≈ 16 mM)
Compound: COc1ccc2c(c1)/C(=C1/Nc3ccccc3/C1=N\O)C(=O)N2 [Compound A3334, 5-Methoxyindirubin-3′-oxime]
- body weight [1]: slightly increased
- proliferative status of β-cells (PCNA+) [1]: exhibited normal proliferative status after the A3334 treatment
- glucose tolerance test and insulin tolerance test ([1]; 4 weeks p.o.): improved the results from the glucose tolerance test (GTT) and insulin tolerance test (ITT)
- blood / fasting glucose level ([1]; A3334 25 mpk, SITA 25 mpk, 4 weeks): lowered the glucose level; also recorded: more significantly lowered by A3334 compared to that by SITA
- β-cell and α-cell mass ([1]; IHC insulin and glucagon): increased and decreased, respectively, by the A3334 treatment
- pancreatic islets / β-cells (insulin, β-catenin, PCNA, Pdx-1) ([1]; histology/IHC): restores β-cell mass and functions; also recorded: showed normal islets with insulin secretion and increased expression levels of β-catenin, PCNA, and Pdx-1; also recorded: mostly protected with the A3334 treatment
- effect on normal diet fed mice (fat size, organ weight, ALT and AST) ([2]; 25 mg/kg/d p.o.): has no effect in NCD mice; also recorded: did not have any effect on normal (Chow) mice; also recorded: no observation of metabolic disease phenotypes; also recorded: did not show any differences on size of fats (FIG. 36A-36B), weight of organs (FIG. 36D), and level of ALT and AST in blood serum
- histology of normal diet fed mice ([2]; 25 mpk p.o.): no histological differences were observed
